# Data as given in patent US10344039B2, “Macrocyclic spirocarbamate derivatives as factor XIa inhibitors, pharmaceutically acceptable compositions and their use” (MERCK SHARP & DOHME CORP., priority 2015, dated 2019).
# Target: T1, purified human Factor XIa (Homo sapiens, UniProt P03951)
# T1 construct: purified human Factor XIa; purchased Sekisui Diagnostics
# Assay: Factor XIa Assay
# Assay type: biochemical
# Details: purified human Factor XIa 40 pM; substrate Z-Gly-Pro-Arg-AFC 100 μM; 50 mM HEPES pH 7.4; read-out: Hu FXIa Ki
# Procedure: The effectiveness of a compound of the present invention as an inhibitor of Coagulation Factor XIa can be determined using a relevant purified serine protease, and an appropriate synthetic substrate. The rate of hydrolysis of the chromogenic or fluorogenic substrate by the relevant serine protease was measured both in the absence and presence of compounds of the present invention. Assays were conducted at room temperature or at 37° C. […] A decrease in the rate of fluorescence change in the presence of inhibitor is indicative of enzyme inhibition. Such methods are known to one skilled in the art. The results of this assay are expressed as the inhibitory constant, Ki.
# Factor XIa determinations were made in 50 mM HEPES buffer at pH 7.4 containing 150 mM NaCl, 5 mM CaCl2, and 0.1% PEG 8000 (polyethylene glycol; JT Baker or Fisher Scientific). Determinations were made using purified human Factor XIa at a final concentration of 40 pM (Sekisui Diagnostics) and he synthetic substrate, Z-Gly-Pro-Arg-AFC, TFA salt (Sigma #C0980) at a concentration of 100 μM.
# Activity assays were performed by diluting a stock solution of substrate at least tenfold to a final concentration ≤0.1 Km into a solution containing enzyme or enzyme equilibrated with inhibitor. Times required to achieve equilibration between enzyme and inhibitor were determined in control experiments. Initial velocities of product formation in the absence (Vo) or presence of inhibitor (Vi) were measured. Assuming competitive inhibition, and that unity is negligible compared Km/[S], [I]/e, and [I]/e (where [S], [I], and e respectively represent the total concentrations, of substrate, inhibitor and enzyme), the equilibrium constant (Ki) for dissociation of the inhibitor from the enzyme can be obtained from the dependence of Vo/Vi on [I] shown in the following equation. Vo/Vi=1+[I]/Ki
# The activities shown by this assay indicate that the compounds of the invention may be therapeutically useful for treating or preventing various cardiovascular and/or cerebrovascular thromboembolic conditions in patients suffering from unstable angina, acute coronary syndrome, refractory angina, myocardial infarction, transient ischemic attacks, atrial fibrillation, stroke such as thrombotic stroke or embolic stroke, venous thrombosis, coronary and cerebral arterial thrombosis, cerebral and pulmonary embolism, atherosclerosis, deep vein thrombosis, disseminated intravascular coagulation, and reocclusion or restenosis of recanalized vessels. The Ki values measured for each of the example compounds of the invention using this assay are reported in the tables above (as “Hu FXIa Ki (nM)”).
# T1 sequence (P03951 388-625 limits assumed): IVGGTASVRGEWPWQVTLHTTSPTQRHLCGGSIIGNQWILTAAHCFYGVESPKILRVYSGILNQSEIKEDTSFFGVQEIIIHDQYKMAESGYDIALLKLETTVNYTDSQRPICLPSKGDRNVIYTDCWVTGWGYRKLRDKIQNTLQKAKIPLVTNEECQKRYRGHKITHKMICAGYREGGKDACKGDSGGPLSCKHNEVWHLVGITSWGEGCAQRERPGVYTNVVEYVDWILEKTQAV
# T1 sequence (P03951 19-387 partner limits assumed): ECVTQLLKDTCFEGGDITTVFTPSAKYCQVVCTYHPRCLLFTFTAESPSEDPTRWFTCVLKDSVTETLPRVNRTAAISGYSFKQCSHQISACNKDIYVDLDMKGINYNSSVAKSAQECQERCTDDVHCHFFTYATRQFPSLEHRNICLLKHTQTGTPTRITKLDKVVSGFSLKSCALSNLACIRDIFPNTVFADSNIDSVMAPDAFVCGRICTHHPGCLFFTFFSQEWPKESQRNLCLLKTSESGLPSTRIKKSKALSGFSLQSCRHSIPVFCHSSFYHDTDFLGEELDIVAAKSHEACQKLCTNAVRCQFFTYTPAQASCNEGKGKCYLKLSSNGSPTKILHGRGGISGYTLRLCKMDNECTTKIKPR
row,Ki [nM],Structure (SMILES)
1,258,"COC(=O)Nc1ccc2c(c1)NC(=O)CCCC[C@H](C(=O)N1CC[C@@]3(C1)OC(=O)Nc1ccc(Cl)cc13)c1nc-2c[nH]1 (single isomer, unassigned) [Example 1b]"
2,268,"O=C1CCCC[C@@H](C(=O)N2CCC[C@@]3(C2)OC(=O)Nc2ccc(Cl)cc23)c2nc(c[nH]2)-c2ccc(F)cc2N1 (single isomer, unassigned) [Example 2a]"
3,> 5000,"O=C1CCCC[C@H](C(=O)N2CCC[C@@]3(C2)OC(=O)Nc2ccc(Cl)cc23)c2nc(c[nH]2)-c2ccc(F)cc2N1 (single isomer, unassigned) [Example 2b]"
4,471,"COC(=O)Nc1ccc2c(c1)NC(=O)CCCC[C@H](C(=O)N1CCC[C@@]3(C1)OC(=O)Nc1ccc(Cl)c(F)c13)c1nc-2c(C)[nH]1 (single isomer, unassigned) [Example 12a]"
5,749,"COC(=O)Nc1ccc2c(c1)NC(=O)C(C)CCCC(C(=O)N1CCC[C@@]3(C1)OC(=O)Nc1ccc(Cl)cc13)c1cc-2ccn1 (single isomer, unassigned) [Example 15b]"
6,1760,"COC(=O)Nc1ccc2c(c1)NC(=O)C(C)CCCC(C(=O)N1CCC[C@@]3(C1)OC(=O)Nc1ccc(Cl)cc13)c1cc-2ccn1 (single isomer, unassigned) [Example 15c]"
7,> 5000,"COC(=O)Nc1ccc2c(c1)NC(=O)C(C)CCCC(C(=O)N1CCC[C@@]3(C1)OC(=O)Nc1ccc(Cl)cc13)c1cc-2ccn1 (single isomer, unassigned) [Example 15d]"
8,> 875,"Nc1ccc2c(c1)NC(=O)CC/C=C\C[C@H](C(=O)N1CCC[C@@]3(C1)OC(=O)Nc1ccc(Cl)c(F)c13)c1cc-2ccn1 (single isomer, unassigned) [Example 20b]"
9,> 875,"COC(=O)Nc1ccc2c(c1)NC(=O)CCCC[C@H](C(=O)N1CC[C@@]3(C1)OC(=O)Nc1ccc(Cl)c(F)c13)c1cccc-2n1 (single isomer, unassigned) [Example 23a]"
10,143,"CCOC(=O)C1CCCCC(C(=O)N2CCC[C@@]3(C2)OC(=O)Nc2ccc(Cl)c(F)c23)c2nc(c[nH]2)-c2ccc(NC(=O)OC)cc2N1 (single isomer, unassigned) [Example 32a]"
11,536,"CCOC(=O)C1CCCCC(C(=O)N2CCC[C@@]3(C2)OC(=O)Nc2ccc(Cl)c(F)c23)c2nc(c[nH]2)-c2ccc(NC(=O)OC)cc2N1 (single isomer, unassigned) [Example 32c]"
12,> 875,"CCOC(=O)C1CCCCC(C(=O)N2CCC[C@@]3(C2)OC(=O)Nc2ccc(Cl)c(F)c23)c2nc(c[nH]2)-c2ccc(NC(=O)OC)cc2N1 (single isomer, unassigned) [Example 32d]"
13,628,"CCOC(=O)C1CCCCC(C(=O)N2CCC[C@@]3(C2)OC(=O)Nc2ccc(Cl)c(F)c23)c2cc(ccn2)-c2cc(F)ccc2N1 (single isomer, unassigned) [Example 34a]"
14,> 875,"CCOC(=O)C1CCCCC(C(=O)N2CCC[C@@]3(C2)OC(=O)Nc2ccc(Cl)c(F)c23)c2cc(ccn2)-c2cc(F)ccc2N1 (single isomer, unassigned) [Example 34b]"
15,196,"CCOC(=O)C1CCCCC(C(=O)N2CCC[C@@]3(C2)OC(=O)Nc2ccc(Cl)c(F)c23)c2cc(ccn2)-c2cc(F)ccc2N1 (single isomer, unassigned) [Example 34c]"
16,> 875,"CCOC(=O)C1CCCCC(C(=O)N2CCC[C@@]3(C2)OC(=O)Nc2ccc(Cl)c(F)c23)c2cc(ccn2)-c2cc(F)ccc2N1 (single isomer, unassigned) [Example 34d]"
17,> 875,"O=C1Nc2ccc(Cl)c(F)c2[C@@]2(CCCN(C(=O)C3CCCCC(C(=O)O)Nc4ccc(F)cc4-c4ccnc3c4)C2)O1 (single isomer, unassigned) [Example 35a]"
18,> 875,"O=C1Nc2ccc(Cl)c(F)c2[C@@]2(CCCN(C(=O)C3CCCCC(C(=O)O)Nc4ccc(F)cc4-c4ccnc3c4)C2)O1 (single isomer, unassigned) [Example 35b]"
19,> 875,"CCOC(=O)C1CCCCC(C(=O)N2CC[C@@]3(C2)OC(=O)Nc2ccc(Cl)c(F)c23)c2cc(ccn2)-c2cc(F)ccc2N1 (single isomer, unassigned) [Example 36a]"
20,> 875,"CCOC(=O)C1CCCCC(C(=O)N2CC[C@@]3(C2)OC(=O)Nc2ccc(Cl)c(F)c23)c2cc(ccn2)-c2cc(F)ccc2N1 (single isomer, unassigned) [Example 36b]"
21,> 875,"O=C1Nc2ccc(Cl)c(F)c2[C@@]2(CCN(C(=O)C3CCCCC(C(=O)O)Nc4ccc(F)cc4-c4ccnc3c4)C2)O1 (single isomer, unassigned) [Example 37a]"
22,> 875,"O=C1Nc2ccc(Cl)c(F)c2[C@@]2(CCN(C(=O)C3CCCCC(C(=O)O)Nc4ccc(F)cc4-c4ccnc3c4)C2)O1 (single isomer, unassigned) [Example 37b]"
23,65,"COC(=O)Nc1ccc2c(c1)NC(=O)CCCC[C@H](C(=O)N1CCC[C@@]3(C1)OC(=O)Nc1ccc(Cl)cc13)c1nc-2c[nH]1 [Example 3b, methyl ((S,Z)-9-((R)-6-chloro-2-oxo-1,2-dihydrospiro[benzo[d][1,3]oxazine-4,3′-piperidine]-1′-carbonyl)-4-oxo-1^1H-3-aza-1(4,2)-imidazola-2(1,2)-benzenacyclononaphane-2^4-yl)carbamate]"
24,> 8750,"O=C1CCCC[C@H](C(=O)N2CC[C@@]3(C2)OC(=O)Nc2ccc(Cl)cc23)c2nc(c[nH]2)-c2ccc(F)cc2N1 [Example 5a, (R)-6-chloro-1′-((S,Z)-2^4-fluoro-4-oxo-1^1H-3-aza-1(4,2)-imidazola-2(1,2)-benzenacyclononaphane-9-carbonyl)spiro[benzo[d][1,3]oxazine-4,3′-pyrrolidin]-2(1H)-one]"
25,1830,"COC(=O)Nc1ccc2c(c1)NC(=O)CCCC[C@H](C(=O)N1CCC[C@@]3(C1)OC(=O)Nc1ccc(Cl)cc13)c1nc-2c(Cl)[nH]1 [Example 7b, methyl ((S,Z)-1^5-chloro-9-((R)-6-chloro-2-oxo-1,2-dihydrospiro[benzo[d][1,3]oxazine-4,3′-piperidine]-1′-carbonyl)-4-oxo-1^1H-3-aza-1(4,2)-imidazola-2(1,2)-benzenacyclononaphane-2^4-yl)carbamate]"
26,195,"COC(=O)Nc1ccc2c(c1)NC(=O)CCCC[C@H](C(=O)N1CC[C@@]3(C1)OC(=O)Nc1ccc(Cl)c(F)c13)c1nc-2c(C)[nH]1 [Example 13a, methyl ((S,Z)-9-((R)-6-chloro-5-fluoro-2-oxo-1,2-dihydrospiro[benzo[d][1,3]oxazine-4,3′-pyrrolidine]-1′-carbonyl)-1^5-methyl-4-oxo-1^1H-3-aza-1(4,2)-imidazola-2(1,2)-benzenacyclononaphane-2^4-yl)carbamate]"
27,217,"COC(=O)Nc1ccc2c(c1)NC(=O)[C@H](C)CCC[C@H](C(=O)N1CCC[C@@]3(C1)OC(=O)Nc1ccc(Cl)c(F)c13)C1=NC=C2O1 [Example 14b, methyl ((5R,9S)-9-((R)-6-chloro-5-fluoro-2-oxo-1,2-dihydrospiro[benzo[d][1,3]oxazine-4,3′-piperidine]-1′-carbonyl)-5-methyl-4-oxo-3-aza-1(5,2)-oxazola-2(1,2)-benzenacyclononaphane-2^4-yl)carbamate]"
28,> 875,"COC(=O)Nc1ccc2c(c1)NC(=O)CCCCC[C@H](C(=O)N1CCC[C@@]3(C1)OC(=O)Nc1ccc(Cl)cc13)c1cc-2ccn1 [Example 16a, methyl ((S)-10-((R)-6-chloro-2-oxo-1,2-dihydrospiro[benzo[d][1,3]oxazine-4,3′-piperidine]-1′-carbonyl)-4-oxo-3-aza-1(4,2)-pyridina-2(1,2)-benzenacyclodecaphane-2^4-yl)carbamate]"
29,284,"COC(=O)Nc1ccc2c(c1)NC(=O)CCCCC[C@@H](C(=O)N1CCC[C@@]3(C1)OC(=O)Nc1ccc(Cl)cc13)c1cc-2ccn1 [Example 16b, methyl ((R)-10-((R)-6-chloro-2-oxo-1,2-dihydrospiro[benzo[d][1,3]oxazine-4,3′-piperidine]-1′-carbonyl)-4-oxo-3-aza-1(4,2)-pyridina-2(1,2)-benzenacyclodecaphane-2^4-yl)carbamate]"
30,> 8750,"COC(=O)Nc1ccc2c(c1)NC(=O)CCCC[C@H](C(=O)N1CC[C@@]3(C1)OC(=O)Nc1ccc(Cl)cc13)c1cc-2ccn1 [Example 17b, methyl ((S)-9-((R)-6-chloro-2-oxo-1,2-dihydrospiro[benzo[d][1,3]oxazine-4,3′-pyrrolidine]-1′-carbonyl)-4-oxo-3-aza-1(4,2)-pyridina-2(1,2)-benzenacyclononaphane-2^4-yl)carbamate]"
